Measured values published in patent US7485631B2, “Phorboxazole compounds and methods of their preparation” (The Trustees of the University of Pennsylvania, priority 2005, dated 2009).
Like-named read-outs stand apart in the source and are kept apart here.

Tests used:
[1] = test system: human cancer cell lines BXP-3, MCF-3, F-268, NCl-H460, KM20L2, DU-145; experiment: Cancer growth inhibition, average over the six human cancer cell line panel; type: cell-based; settings: for tumor cell growth inhibitory activity compared with (+)-phorboxazole A (in words): summary of the six cell line panel; for GI50: Homo sapiens, average over six human cancer cell lines
Description: (§1) With (+)-phorboxazole A (XVIII) and the eight phorboxazole analogues in hand, biological evaluation against a diverse panel of human cancer cell lines was conducted in the laboratory of Professor George R. Pettit at the Cancer Research Institute of Arizona State University. Specifically, cancer growth inhibition efficacy was evaluated against the human cancer cell lines; BXP-3 (pancreatic), MCF-3 (breast), F-268 (CNS), NCl-H460 (non-small lung), KM20L2 (colon), and DU-145 (prostate) (Smith, et al. Org. Lett. 2005, 7, 4403; Smith, et al. Org. Lett. 2005, 8, 797).

[2] = test system: BXP-3 (pancreatic); experiment: Cancer growth inhibition, pancreatic cancer cell line; type: cell-based; settings: Homo sapiens
Description: as §1

[3] = test system: F-268 (CNS); experiment: Cancer growth inhibition, CNS cancer cell line; type: cell-based; settings: Homo sapiens
Description: as §1

[4] = test system: NCl-H460 (non-small lung); experiment: Cancer growth inhibition, non-small lung cancer cell line; type: cell-based; settings: Homo sapiens
Description: as §1

[5] = test system: KM20L2 (colon); experiment: Cancer growth inhibition, colon cancer cell line; type: cell-based; settings: Homo sapiens, KM-20L2
Description: as §1

[6] = other bond, K2CO3/18-crown-6, toluene, 25.0 °C
[7] = test system: National Cancer Institute's (NCI) panel of 60 human tumor cell lines; settings: mean over the entire NCI 60 human tumor cell line panel; cited from earlier work
[8] = test system: MCF-3 (breast); experiment: Cancer growth inhibition, breast cancer cell line; type: cell-based; settings: Homo sapiens
Description: as §1

In the case of `C=C1C[C@@H]2C[C@@H]3C[C@@H](O)C[C@@H](O3)c3coc(n3)/C=C/C[C@H]3O[C@@H](/C(C)=C/c4coc(C[C@]5(O)C[C@H](OC)C[C@H]([C@H](O)/C=C(C)/C=C/[C@@H](C/C=C/Cl)OC)O5)n4)[C@H](C)[C@@H](OC(=O)/C=C\C[C@@H](C1)O2)[C@H]3C` [XVIId, C(45-46)-E-Chloroalkenyl-Phorboxazole], the “tumor cell growth inhibitory activity compared with (+)-phorboxazole A (in words)” value [1] is reported as “activity greater than that of (+)-phorboxazole A”, the GI50 [2] is reported as 0.62 nM and the GI50 [3] is reported as 0.49 nM. It also gave a GI50 [4] of 0.64 nM and a GI50 [5] of 0.38 nM.
For `C#CC[C@H](/C=C/C(C)=C/[C@@H](O)[C@H]1C[C@@H](OC)C[C@@](O)(Cc2nc(/C=C(\C)[C@@H]3O[C@@H]4C/C=C/c5nc(co5)[C@H]5C[C@H](O)C[C@@H](C[C@H]6CC(=C)C[C@H](C/C=C\C(=O)O[C@@H]([C@H]4C)[C@H]3C)O6)O5)co2)O1)OC` [XVIIaZ, C(45-46)-Alkynyl-Phorboxazole], the GI50 [1] was 5.2 nM and the “tumor cell growth inhibitory activity compared with (+)-phorboxazole A (in words)” value [1] was “activity comparable to that of (+)-phorboxazole A”.
Compound `C=C1C[C@@H]2C[C@@H]3C[C@@H](O[Si](C)(C)C(C)(C)C)C[C@@H](O3)c3coc(n3)/C=C/C[C@H]3O[C@@H](/C(C)=C/I)[C@H](C)[C@@H](OC(=O)/C=C\C[C@@H](C1)O2)[C@H]3C` has a ring closure, yield of all isomers ([6]; from C=C1C[C@H](C[C@@H]2C[C@@H](O[Si](C)(C)C(C)(C)C)C[C@H](c3coc(/C=C/C[C@H]4O[C@@H](/C(C)=C/I)[C@H](C)[C@@H](OC(=O)CP(=O)(OCC(F)(F)F)OCC(F)(F)F)[C@H]4C)n3)O2)O[C@@H](CC=O)C1, 0.706 mM, 3.0 h) of 96%.
With `C=CC[C@H](/C=C/C(C)=C/[C@@H](O)[C@H]1C[C@@H](OC)C[C@](Cc2nc(/C=C(\C)[C@@H]3O[C@H](CCO)[C@H](C)[C@H](OCc4ccc(OC)c(OC)c4)[C@H]3C)co2)(OC)O1)OC` [XVIIe, C(45-46)-Alkenyl-C(22-26)-Central Tetrahydropyran Phorboxazole] the “activity across the entire cell line panel (in words)” value ([1]; six human cancer cell lines) was “inactive”.
For `C=C1C[C@@H]2C[C@@H]3C[C@@H](O)C[C@@H](O3)c3coc(n3)/C=C/C[C@H]3O[C@@H](/C(C)=C/c4coc(C[C@]5(O)C[C@H](OC)C[C@H]([C@H](O)/C=C(C)/C=C/[C@@H](C/C=C/Br)OC)O5)n4)[C@H](C)[C@@H](OC(=O)/C=C\C[C@@H](C1)O2)[C@H]3C` [XVIII, Phorboxazole A, reference compound], the GI50 [1] is listed as 5 nM and the GI50 [7] is listed as 1.58 nM.
`C#CC[C@H](/C=C/C(C)=C/[C@@H](O)[C@H]1C[C@@H](OC)C[C@@](O)(Cc2nc(/C=C(\C)[C@@H]3O[C@@H]4C/C=C/c5nc(co5)[C@H]5OCC[C@@H](C[C@H]6CC(=C)C[C@H](C/C=C\C(=O)O[C@@H]([C@H]4C)[C@H]3C)O6)O5)co2)O1)OC` [XVIIfZ, Z-C(2-3) C(11-15)-Acetal Alkynyl Phorboxazole] gave a GI50 [1] of 34.6 nM, a GI50 [8] of 18.3 nM and a GI50 [5] of 11.8 nM.
For `C#CC[C@H](/C=C/C(C)=C/[C@@H](O)[C@H]1C[C@@H](OC)C[C@@](O)(Cc2nc(/C=C(\C)[C@@H]3O[C@@H]4C/C=C/c5nc(co5)[C@H]5C[C@H](O)C[C@@H](C[C@H]6CC(=C)C[C@H](C/C=C/C(=O)O[C@@H]([C@H]4C)[C@H]3C)O6)O5)co2)O1)OC` [XVIIaE, E-C(2-3)-C(45-46)-Alkynyl-Phorboxazole], the GI50 [1] was 281 nM.
With `C=C1C[C@@H]2C[C@@H]3CCO[C@@H](O3)c3coc(n3)/C=C/C[C@H]3O[C@@H](/C(C)=C/I)[C@H](C)[C@@H](OC(=O)/C=C\C[C@@H](C1)O2)[C@H]3C` the ring closure, yield of all isomers ([6]; from C=C1C[C@H](C[C@@H]2CCO[C@H](c3coc(/C=C/C[C@H]4O[C@@H](/C(C)=C/I)[C@H](C)[C@@H](OC(=O)CP(=O)(OCC(F)(F)F)OCC(F)(F)F)[C@H]4C)n3)O2)O[C@@H](CC=O)C1, 0.74 mM, 2.0 h) was 86%.
In the case of `C=CC[C@H](/C=C/C(C)=C/[C@@H](O)[C@H]1C[C@@H](OC)C[C@@](O)(Cc2nc(/C=C(\C)[C@@H]3O[C@@H]4C/C=C/c5nc(co5)[C@H]5C[C@H](O)C[C@@H](C[C@H]6CC(=C)C[C@H](C/C=C\C(=O)O[C@@H]([C@H]4C)[C@H]3C)O6)O5)co2)O1)OC` [XVIIc, C(45-46)-Alkenyl-Phorboxazole], the GI50 [1] is reported as 4.1 nM and the “tumor cell growth inhibitory activity compared with (+)-phorboxazole A (in words)” value [1] is reported as “activity comparable to that of (+)-phorboxazole A”.
For `C=C1C[C@@H]2C[C@H]3C[C@@H](O)C[C@H](O3)c3coc(n3)/C=C\C[C@H]3O[C@@H](/C(C)=C/c4coc(C[C@]5(O)C[C@H](OC)C[C@H]([C@H](O)/C=C(C)/C=C/[C@@H](C/C=C/Br)OC)O5)n4)[C@H](C)[C@@H](OC(=O)/C=C\C[C@@H](C1)O2)[C@H]3C` [(+)-Phorboxazole B, Phorboxazole B], the GI50 [7] is listed as 1.58 nM.
`C#CC[C@H](/C=C/C(C)=C/[C@@H](O)[C@H]1C[C@@H](OC)C[C@@](O)(Cc2nc(/C=C(\C)[C@@H]3O[C@@H]4C/C=C/c5nc(co5)[C@H]5OCC[C@@H](C[C@H]6CC(=C)C[C@H](C/C=C/C(=O)O[C@@H]([C@H]4C)[C@H]3C)O6)O5)co2)O1)OC` [XVIIfE, E-C(2-3) C(11-15)-Acetal Alkynyl Phorboxazole] gave a GI50 [1] of 944 nM.
With `C=C1C[C@@H]2C[C@@H]3C[C@@H](O)C[C@@H](O3)c3coc(n3)/C=C/C[C@H]3O[C@@H](/C(C)=C/c4coc(C[C@]5(O)C[C@H](OC)C[C@H]([C@H](O)/C=C(C)/C=C/[C@@H](CCC)OC)O5)n4)[C@H](C)[C@@H](OC(=O)/C=C\C[C@@H](C1)O2)[C@H]3C` [XVIIb, C(45-46)-Alkyl-Phorboxazole] the GI50 [1] was 3.1 nM, the “tumor cell growth inhibitory activity compared with (+)-phorboxazole A (in words)” value [1] was “activity comparable to that of (+)-phorboxazole A” and the GI50 [4] was 1.6 nM. For the same compound, the GI50 [5] was 1.3 nM.
